Tested on: 926638-142-R-J1-PDC complex spheroid viability
Test: Anticancer human tumor 926638-142-R-J1-PDC patient-derived endometrial carcinoma cell line growth inhibition [POLQ]
Conditions: for IC50: curve of first compound; for viability, T/C: stronger effect = lower value; active means viability on the fitted dose curve at most 10% of control; inactive means the rest
Description: Multicellular complex tumor spheroid response to Polymerase (POL) inhibitors (novobiocin, ART-558, RP6685) in combination with a variety of drugs and investigational agents in selected tumor cell lines
The POL inhibitors (novobiocin, ART-558, and RP6685) were evaluated both individually and in combination with standard of care and investigational anticancer small molecules within a complex spheroid model of solid tumors. . Complex spheroids include a stromal component modeled by human endothelial cells (HUVEC) and fibroblasts modeled by human mesenchymal stem cells (MSCs). The concentration ranges selected for each drug and investigational agent were based upon clinically achievable concentrations if the clinical Cmax of the agent was known.
Compounds. The drugs and investigational agents: novobiocin (NSC847541), ART-558 (NSC835418), RP-6685 (NSC848927), peposertib (NSC802822), ceralasertib (NSC780249), elimusertib (NSC800525), camonsertib (NSC841442), AZD-1390 (NSC803789), olaparib (NSC753686), talazoparib (NSC767125), rucaparib (NSC756644), sotorasib (NSC818433), MRTX-1133 (NSC836407), SN-38 (NSC673596), topotecan (NSC609699), epotoside (NSC141540), doxorubicin (NSC123127), gemcitabine (NSC613327), 5-fluorouracil (NSC19893), paclitaxel (NSC125973), vemurafenib (NSC761431), MSA-2 (NSC828583), SN-011 (NSC837082), adavosertib (NSC754352), prexasertib (NSC758257), carboplatin (NSC241240) and oxaliplatin (NSC266046), were obtained from the National Cancer Institute (NCI) Developmental Therapeutics Program Chemical Repository (21). The FDA-approved anticancer drug set is available from the Developmental Therapeutics Program at https://dtp.cancer.gov/organization/dscb/obtaining/. […] The stock solutions were prepared in dimethyl sulfoxide (DMSO, Sigma-Aldrich, St. Louis, MO, cat. D2650), except for the platinum compounds which were prepared in saline (Quality Biological, Gaithersburg, MD, cat. 114-055-101), at 800-fold the tested concentration and stored at -70 degrees C prior to their use. All drugs and investigational agents were tested over a range starting from a high concentration at or near the clinical Cmax and decreasing in half-log increments. If the clinical Cmax for an agent had not been determined, the highest concentration tested was 10 microM, except for SN-38, which was tested at a high concentration of 1 microM.
Cell Culture. All cells were maintained in an incubator at 37 degrees C and 5% CO2 with 95% humidity. The PDC lines were cultured according to standard operating procedures established by the NCI PDMR (https://pdmr.cancer.gov). Table 3 of the manuscript, lists the cell lines along with the number of the three cell types plated to form the mct-spheroids and media for tumor cell growth. After thawing, all PDC lines, except 997537-175-T-J1-PDC and 415267-285-R-J2-PDC, were cultured in Matrigel-coated flasks prepared with a working solution of 1X Ham's F-12 nutrient mix, without supplementation (Thermo Fisher Scientific, cat. 11765054), 100 U/mL penicillin-streptomycin (Thermo Fisher Scientific, cat. 15140122), and 2.5% Matrigel (Corning Inc., Corning, NY, cat. 354248) for the first three passages. The two PDC lines 997537-175-T-J1-PDC and 415267-285-R-J2-PDC were cultured on uncoated flasks. The 857933-349-R-J2-PDC line was cultured in 6C/Colon 1B media containing advanced DMEM/F-12 (Thermo Fisher Scientific, cat. 12634028), 10 mM HEPES (Thermo Fisher Scientific, cat. 15630080), 1X GlutaMAX supplement (Thermo Fisher Scientific, cat. 35050061), 0.1 mg/mL primocin (InvivoGen, San Diego, CA, cat. ant-pm-2), 10% defined fetal bovine serum, heat inactivated (HyClone Laboratories Inc., Logan, UT, cat. SH30070.03HI), 50% L-WRN conditioned media (ATCC, cat. CRL-3276), 1.25 mM N-Acetyl-L-cysteine (Sigma-Aldrich, cat. A9165), 10 mM nicotinamide (Sigma-Aldrich, cat. N0636), 1X B-27 supplement (Thermo Fisher Scientific, cat. 17504044), 1X N-2 supplement (Thermo Fisher Scientific, cat. […]

[1] = second compound 0.0316 µM, first compound 0.0316 µM
[2] = second compound 0.0316 µM, first compound 0.1 µM
[3] = second compound 0.0316 µM, first compound 0.316 µM
[4] = second compound 0.0316 µM, first compound 1 µM
[5] = second compound 0.0316 µM, first compound 3.16 µM
[6] = second compound 0.0316 µM, first compound 10 µM
[7] = second compound 0.1 µM, first compound 0.0316 µM
[8] = second compound 0.1 µM, first compound 0.1 µM
[9] = second compound 0.1 µM, first compound 0.316 µM
[10] = second compound 0.1 µM, first compound 1 µM
[11] = second compound 0.1 µM, first compound 3.16 µM
[12] = second compound 0.1 µM, first compound 10 µM
[13] = second compound 0.316 µM, first compound 0.0316 µM
[14] = second compound 0.316 µM, first compound 0.1 µM
[15] = second compound 0.316 µM, first compound 0.316 µM
[16] = second compound 0.316 µM, first compound 1 µM
[17] = second compound 0.316 µM, first compound 3.16 µM
[18] = second compound 0.316 µM, first compound 10 µM
[19] = second compound 1 µM, first compound 0.0316 µM
[20] = second compound 1 µM, first compound 0.1 µM
[21] = second compound 1 µM, first compound 0.316 µM
[22] = second compound 1 µM, first compound 1 µM
[23] = second compound 1 µM, first compound 3.16 µM
[24] = second compound 1 µM, first compound 10 µM
[25] = second compound 3.16 µM, first compound 0.0316 µM
[26] = second compound 3.16 µM, first compound 0.1 µM
[27] = second compound 3.16 µM, first compound 0.316 µM
[28] = second compound 3.16 µM, first compound 1 µM
[29] = second compound 3.16 µM, first compound 3.16 µM
[30] = second compound 3.16 µM, first compound 10 µM
[31] = second compound 10 µM, first compound 0.0316 µM
[32] = second compound 10 µM, first compound 0.1 µM
[33] = second compound 10 µM, first compound 0.316 µM
[34] = second compound 10 µM, first compound 1 µM
[35] = second compound 10 µM, first compound 3.16 µM
[36] = second compound 10 µM, first compound 10 µM
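Further: spheroids exposed to drugs for one week before readout.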
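Wherever viability, T/C is given: percent viability relative to DMSO vehicle control wells set as 100%.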

CC1COCCN1c1cc(-c2ccnn2C)c2ccnc(-c3ccn[nH]3)c2n1 (centres undefined) + Cc1cccc(N(C)C(=O)C2C(O)CCN2c2nc(C)cc(C(F)(F)F)c2C#N)c1
313 nM: IC50 (second compound 10 µM)
inactive: viability, T/C [1] 94.8% | viability, T/C [2] 75.6% | viability, T/C [3] 58% | viability, T/C [4] 27.5% | viability, T/C [5] 12.6% | viability, T/C [7] 106% | viability, T/C [8] 81.6% | viability, T/C [9] 51.1% | viability, T/C [10] 28% | viability, T/C [11] 12.6% | viability, T/C [13] 106% | viability, T/C [14] 76.7% | viability, T/C [15] 52.3% | viability, T/C [16] 23.1% | viability, T/C [17] 12.2% | viability, T/C [19] 83.7% | viability, T/C [20] 99.3% | viability, T/C [21] 56.1% | viability, T/C [22] 24.1% | viability, T/C [23] 12.2% | viability, T/C [24] 8.86% | viability, T/C [25] 73.2% | viability, T/C [26] 77.7% | viability, T/C [27] 53.8% | viability, T/C [28] 32.8% | viability, T/C [29] 10.1% | viability, T/C [31] 90.7% | viability, T/C [32] 76.5% | viability, T/C [33] 50.2% | viability, T/C [34] 23.3% | viability, T/C [35] 10.8%
active: viability, T/C [6] 8.02% | viability, T/C [12] 7.36% | viability, T/C [18] 10.2% | viability, T/C [30] 6.72% | viability, T/C [36] 7.42%
433 nM: IC50 (second compound 3.16 µM)
298 nM: IC50 (second compound 0.316 µM)
340 nM: IC50 (second compound 0.1 µM)
414 nM: IC50 (second compound 1 µM)
388 nM: IC50 (second compound 0.0316 µM)

COc1cccc2c1C(=O)c1c(O)c3c(c(O)c1C2=O)CC(O)(C(=O)CO)CC3OC1CC(N)C(O)C(C)O1 (centres undefined) + Cc1cccc(N(C)C(=O)C2C(O)CCN2c2nc(C)cc(C(F)(F)F)c2C#N)c1
133 nM: IC50 (second compound 0.0316 µM)
115 nM: IC50 (second compound 3.16 µM)
inactive: viability, T/C [1] 76.8% | viability, T/C [2] 59.4% | viability, T/C [3] 21% | viability, T/C [7] 68.6% | viability, T/C [8] 65% | viability, T/C [9] 18.5% | viability, T/C [13] 79.3% | viability, T/C [14] 61.9% | viability, T/C [15] 19% | viability, T/C [19] 71.6% | viability, T/C [20] 50.4% | viability, T/C [21] 17.4% | viability, T/C [25] 82.1% | viability, T/C [26] 54.8% | viability, T/C [27] 15.1% | viability, T/C [31] 70.5% | viability, T/C [32] 58.4% | viability, T/C [33] 14.2%
active: viability, T/C [4] 2.89% | viability, T/C [5] 0.19% | viability, T/C [6] 0.26% | viability, T/C [10] 3.26% | viability, T/C [11] 0.2% | viability, T/C [12] 0.33% | viability, T/C [16] 2.18% | viability, T/C [17] 0.15% | viability, T/C [18] 0.25% | viability, T/C [22] 2.2% | viability, T/C [23] 0.14% | viability, T/C [24] 0.24% | viability, T/C [28] 2.08% | viability, T/C [29] 0.25% | viability, T/C [30] 0.32% | viability, T/C [34] 1.62% | viability, T/C [35] 0.26% | viability, T/C [36] 0.24%
144 nM: IC50 (second compound 0.1 µM)
138 nM: IC50 (second compound 0.316 µM)
124 nM: IC50 (second compound 10 µM)
102 nM: IC50 (second compound 1 µM)

Reference: PubChem BioAssay AID1963826 (Molecular Pharmacology Branch, DTP, NCI, 2024)
